The numbers were not newly measured in patent US7514484B2, “Aqueous dispersion of polytetrafluoroethylene and process for its production” (Asahi Glass Company, Limited, priority 2005, dated 2009), which cites them from elsewhere.

Read-outs that look alike come from different tables or passages of the source.

Setting [1] is: additives of Table 3, value of the corresponding acid.
Setting [2] is: carboxylic acid corresponding to the salt of formula (4).

As for `CCCCCCCCCCCC(=O)O.N` [(d), ammonium laurate], the pKa under setting [1] is 4.6. Take `CCCCCCCCCCCC(=O)O` [lauric acid]: under setting [2], the pKa is on record as 4.6.

As to `O=C(O)C(F)c1ccccc1` (stereo not shown) [fluorophenyl acetic acid], the pKa under setting [2] was 4.3. Consider ammonium fluorophenyl acetate [(f)], for which the pKa under setting [1] is 4.3.

What is called pKa is the negative logarithm of the acid dissociation constant.
